Calls of active or inactive are those of the source. The rule behind the calls is not given here.
Assays:
[1] = tested on: Caco-2; test: Anticancer activity against human Caco-2 cells incubated for 72 hrs by MTT assay; assay type: functional, cell-based; details: Caco-2, 72 h
[2] = tested on: HepG2; test: Potency index, ratio of 5-fluorouracil IC50 to test compound IC50 for antiproliferative activity against human HepG2 cells; assay type: functional
[3] = tested on: MCF7; test: Anticancer activity against human MCF7 cells incubated for 72 hrs by MTT assay; assay type: functional, cell-based; details: MCF7, 72 h
[4] = tested on: HeLa; test: Anticancer activity against human HeLa cells incubated for 72 hrs by MTT assay; assay type: functional, cell-based
[5] = Selectivity index, ratio of IC50 for human WI-38 cells to IC50 for human MCF7 cells; assay type: toxicity; details: WI-38 cells versus MCF7 cells, read-out: Ratio IC50
[6] = tested on: MCF7; test: Potency index, ratio of 5-fluorouracil IC50 to test compound IC50 for antiproliferative activity against human MCF7 cells; assay type: functional
[7] = Selectivity index, ratio of IC50 for human WI-38 cells to IC50 for human Caco-2 cells
[8] = Selectivity index, ratio of IC50 for human WI-38 cells to IC50 for human HepG2 cells; assay type: toxicity; details: WI-38 cells versus HepG2 cells, read-out: Ratio IC50
[9] = Selectivity index, ratio of IC50 for human WI-38 cells to IC50 for human HeLa cells; assay type: toxicity; details: WI-38 cells versus HeLa cells, read-out: Ratio IC50
[10] = Cytotoxicity in human WI-38 cells assessed as safe dose incubated for 72 hrs by MTT assay; assay type: toxicity, cell-based; details: read-out: EC100
[11] = tested on: HepG2; test: Anticancer activity against human HepG2 cells incubated for 72 hrs by MTT assay; assay type: functional, cell-based; details: HepG2, 72 h
[12] = Cytotoxicity in human WI-38 cells assessed as reduction in cell viability incubated for 72 hrs by MTT assay; assay type: toxicity, cell-based
[13] = tested on: dsDNA; test: Induction of damage in dsDNA (unknown origin) assessed as DNA disruption by measuring amplitude at 100 uM incubated for 2.5 hrs by EvaGreen based fluorescence plate reader analysis; assay type: nucleic-acid assay
[14] = tested on: dsDNA; test: Induction of damage in dsDNA (unknown origin) assessed as DNA disruption by measuring damage constant at 100 uM incubated for 2.5 hrs by EvaGreen based fluorescence plate reader analysis; assay type: nucleic-acid assay
[15] = tested on: dsDNA; test: Induction of damage in dsDNA (unknown origin) assessed as DNA disruption by measuring fluorescence intensity at 100 uM incubated for 2.5 hrs by EvaGreen based fluorescence plate reader analysis; assay type: nucleic-acid assay
[16] = tested on: Caco-2; test: Induction of apoptosis in human Caco-2 cells assessed as pro-oxidant effect by measuring free radical generation measured at 0.097 uM after 72 hrs; assay type: functional, cell-based
[17] = tested on: MCF7; test: Induction of apoptosis in human MCF7 cells assessed as pro-oxidant effect by measuring free radical generation measured at 0.097 uM after 72 hrs; assay type: functional, cell-based
[18] = tested on: Caco-2; test: Induction of apoptosis in human Caco-2 cells assessed as ratio of gene expression activity in pro apoptotic Bax to anti apoptotic Bcl-2; assay type: functional
[19] = tested on: HeLa; test: Induction of apoptosis in human HeLa cells assessed as ratio of gene expression activity in pro apoptotic Bax to anti apoptotic Bcl-2; assay type: functional
[20] = biological target: Tumour suppressor p53/oncoprotein Mdm2 (Homo sapiens, UniProt P04637+Q00987); test: Inhibition of human recombinant MDM2/p53 interaction measured after 10 mins by ELISA method; assay type: protein assay
Chain of Tumour suppressor p53/oncoprotein Mdm2 (P04637 whole entry): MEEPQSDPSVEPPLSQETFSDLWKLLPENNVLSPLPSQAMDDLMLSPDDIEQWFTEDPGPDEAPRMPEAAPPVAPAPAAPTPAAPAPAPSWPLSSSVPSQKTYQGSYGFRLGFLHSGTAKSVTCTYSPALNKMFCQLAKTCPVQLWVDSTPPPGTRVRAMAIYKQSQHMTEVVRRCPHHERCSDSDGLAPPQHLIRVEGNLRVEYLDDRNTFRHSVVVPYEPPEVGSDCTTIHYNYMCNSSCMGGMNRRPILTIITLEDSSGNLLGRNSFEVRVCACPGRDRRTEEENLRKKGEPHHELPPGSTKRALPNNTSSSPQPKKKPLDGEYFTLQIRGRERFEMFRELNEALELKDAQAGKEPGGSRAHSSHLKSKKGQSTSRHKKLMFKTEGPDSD
Chain of Tumour suppressor p53/oncoprotein Mdm2 (Q00987 whole entry): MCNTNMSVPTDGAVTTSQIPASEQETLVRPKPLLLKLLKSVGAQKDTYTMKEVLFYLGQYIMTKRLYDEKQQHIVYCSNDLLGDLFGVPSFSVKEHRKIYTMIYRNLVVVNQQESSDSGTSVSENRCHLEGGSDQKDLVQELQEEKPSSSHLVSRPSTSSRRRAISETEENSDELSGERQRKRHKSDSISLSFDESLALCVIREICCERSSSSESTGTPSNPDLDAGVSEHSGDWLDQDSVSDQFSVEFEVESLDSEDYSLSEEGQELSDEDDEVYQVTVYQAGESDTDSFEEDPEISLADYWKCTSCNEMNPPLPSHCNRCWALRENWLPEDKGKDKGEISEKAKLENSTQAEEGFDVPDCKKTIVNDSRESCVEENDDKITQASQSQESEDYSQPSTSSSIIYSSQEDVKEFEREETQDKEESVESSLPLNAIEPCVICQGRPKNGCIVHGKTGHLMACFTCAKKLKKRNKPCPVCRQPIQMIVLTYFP

[21] = tested on: HeLa; test: cells; details: Homo sapiens, 72 h, read-out: Activity
Description: Induction of apoptosis in human HeLa cells assessed as viable cells incubated at 0.027 uM for 72 hrs by annexin V-FITC based propidium iodide dual staining assay (Rvb = 97.23%)

[22] = tested on: Caco-2; test: cells; details: Homo sapiens, Caco-2, 72 h, read-out: Activity
[23] = tested on: MCF7; test: Induction of apoptosis in human MCF7 cells assessed as ratio of gene expression activity in pro apoptotic Bax to anti apoptotic Bcl-2; assay type: functional
[24] = tested on: HepG2; test: Induction of apoptosis in human HepG2 cells assessed as ratio of gene expression activity in pro apoptotic Bax to anti apoptotic Bcl-2; assay type: functional
[25] = tested on: MCF7; test: cells; details: Homo sapiens, MCF7, 72 h, read-out: Activity
Description: Induction of apoptosis in human MCF7 cells assessed as viable cells incubated at 0.027 uM for 72 hrs by annexin V-FITC based propidium iodide dual staining assay (Rvb = 99.9%)

[26] = tested on: HepG2; test: cells; details: Homo sapiens, HepG2, 72 h, read-out: Activity
Description: Induction of apoptosis in human HepG2 cells assessed as viable cells incubated at 0.027 uM for 72 hrs by annexin V-FITC based propidium iodide dual staining assay (Rvb = 97.27%)

For `O=C1CN(/N=C/c2ccc([N+](=O)[O-])o2)C(=O)N1Cc1ccccc1`, the IC50 [1] was 182 nM, the “Ratio IC50” value [2] was 1.2 and the IC50 [3] was 113 nM. For the same compound, the IC50 [4] was 129 nM, the selectivity ratio [5] was 1.92 and the “Ratio IC50” value [6] was 1.2. The Ratio IC50 [7] was 1.19, the selectivity ratio [8] was 1.82 and the selectivity ratio [9] was 1.68. It also gave an MNTC at 72 h [10] of 33 nM, an IC50 [11] of 120 nM and an IC50 at 72 h [12] of 216 nM.
With `O=C1CN(/N=C/c2ccc([N+](=O)[O-])o2)C(=O)N1Cc1cn(-c2ccccc2)nn1` the IC50 [1] was 144 nM, the “Ratio IC50” value [2] was 1.2 and the IC50 [3] was 128 nM. The IC50 [4] was 84 nM, the selectivity ratio [5] was 1.74 and the “Ratio IC50” value [6] was 1.2. The Ratio IC50 [7] was 1.53, the selectivity ratio [8] was 2.11 and the selectivity ratio [9] was 2.61. For the same compound, the MNTC at 72 h [10] was 36 nM, the IC50 [11] was 104 nM and the IC50 at 72 h [12] was 220 nM.
For `O=C(CN1C(=O)CN(/N=C/c2ccc([N+](=O)[O-])o2)C1=O)c1ccc(Br)cc1`, the IC50 [1] was 78 nM, the IC50 [3] was 105 nM and the IC50 [4] was 97 nM. For the same compound, the selectivity ratio [5] was 2.31, the “Ratio IC50” value [6] was 1.2 and the Ratio IC50 [7] was 3.05. The selectivity ratio [8] was 0.83, the selectivity ratio [9] was 2.47 and the MNTC at 72 h [10] was 66 nM. It also gave an IC50 [11] of 289 nM and an IC50 at 72 h [12] of 240 nM.
In the case of `O=C1CN(/N=C/c2ccc([N+](=O)[O-])o2)C(=O)N1Cc1cn(-c2ccc(S(=O)(=O)Nc3nccs3)cc2)nn1`, the IC50 [1] is reported as 87 nM, the “Ratio IC50” value [2] is reported as 1.2 and the IC50 [3] is reported as 120 nM. The IC50 [4] was 108 nM, the selectivity ratio [5] was 0.727 and the “Ratio IC50” value [6] was 1.2. It also gave a Ratio IC50 [7] of 1.01, a selectivity ratio [8] of 1.23 and a selectivity ratio [9] of 0.813. It also gave an MNTC at 72 h [10] of 32 nM, an IC50 [11] of 71 nM and an IC50 at 72 h [12] of 87.9 nM.
In the case of `O=C(CN1C(=O)CN(/N=C/c2ccc([N+](=O)[O-])o2)C1=O)c1ccccc1`, the IC50 [1] is reported as 73 nM, the IC50 [3] is reported as 76 nM and the selectivity ratio [5] is reported as 2.98. For the same compound, the “Ratio IC50” value [6] was 1.2, the Ratio IC50 [7] was 3.08 and the selectivity ratio [8] was 0.824. For the same compound, the MNTC at 72 h [10] was 19 nM, the IC50 [11] was 277 nM and the IC50 at 72 h [12] was 226 nM.
With `COc1cccc2c1C(=O)c1c(O)c3c(c(O)c1C2=O)C[C@@](O)(C(=O)CO)C[C@@H]3O[C@H]1C[C@H](N)[C@H](O)[C@H](C)O1` the Activity [13] was 218, the Activity [14] was 15.2 and the Activity [15] was 65.4.
For `O=C1CN(/N=C/c2ccc([N+](=O)[O-])o2)C(=O)N1Cc1ccc([N+](=O)[O-])cc1`, the IC50 [1] was 103 nM, the “Ratio IC50” value [2] was 1.2 and the IC50 [3] was 103 nM. The IC50 [4] was 121 nM, the selectivity ratio [5] was 1.77 and the “Ratio IC50” value [6] was 1.2. For the same compound, the Ratio IC50 [7] was 1.75, the selectivity ratio [8] was 1.42 and the selectivity ratio [9] was 1.51. The MNTC at 72 h [10] was 9 nM, the IC50 [11] was 127 nM and the IC50 at 72 h [12] was 181 nM.
With `O=C1CN(/N=C/c2ccc([N+](=O)[O-])o2)C(=O)N1Cc1cn(-c2ccc(Cl)cc2)nn1` the IC50 [1] was 77 nM, the Activity [16] was “Active” and the Activity [17] was “Active”. It also gave an IC50 [3] of 85 nM, an IC50 [4] of 78 nM and a selectivity ratio [5] of 1.77. For the same compound, the “Ratio IC50” value [6] was 1.2, the Ratio IC50 [7] was 1.95 and the selectivity ratio [8] was 0.376. It also gave a selectivity ratio [9] of 1.92, an MNTC at 72 h [10] of 29 nM and an IC50 [11] of 400 nM. The IC50 at 72 h [12] was 150 nM.
For `O=C1CN(/N=C/c2ccc([N+](=O)[O-])o2)C(=O)N1Cc1ccc(Br)cc1`, the “Ratio IC50” value [2] was 1.2, the IC50 [3] was 80 nM and the IC50 [4] was 183 nM. For the same compound, the selectivity ratio [5] was 1.5, the “Ratio IC50” value [6] was 1.2 and the selectivity ratio [8] was 1.78. It also gave a selectivity ratio [9] of 0.65, an MNTC at 72 h [10] of 32 nM and an IC50 [11] of 67 nM. For the same compound, the IC50 at 72 h [12] was 119 nM.
For `Cc1ccc(C(=O)CN2C(=O)CN(/N=C/c3ccc([N+](=O)[O-])o3)C2=O)cc1`, the IC50 [1] was 140 nM, the IC50 [3] was 255 nM and the IC50 [4] was 115 nM. The selectivity ratio [5] was 0.706, the Ratio IC50 [7] was 1.28 and the selectivity ratio [8] was 0.628. The selectivity ratio [9] was 1.58, the MNTC at 72 h [10] was 33 nM and the IC50 [11] was 287 nM. For the same compound, the IC50 at 72 h [12] was 180 nM.
`O=C1CN(/N=C/c2ccc([N+](=O)[O-])o2)C(=O)N1` [NITROFURANTOIN] showed an IC50 [1] of 115 nM, a Ratio [18] of 1.385 and a Ratio [19] of 1.42. It also gave an IC50 [20] of 1580 nM, an IC50 [4] of 166 nM and a viability at 0.027 µM [21] of 84.8%. The Ratio IC50 [7] was 1.41, the selectivity ratio [9] was 0.98 and the viability at 0.027 µM [22] was 85%. It also gave an MNTC at 72 h [10] of 27 nM, a Ratio [23] of 0.958 and a Ratio [24] of 1.002. The viability at 0.027 µM [25] was 98.8%, the viability at 0.027 µM [26] was 98.7% and the IC50 at 72 h [12] was 162 nM.
For `O=C1CN(/N=C/c2ccc([N+](=O)[O-])o2)C(=O)N1Cc1cn(-c2ccc([N+](=O)[O-])cc2)nn1`, the IC50 [1] was 140 nM, the “Ratio IC50” value [2] was 1.2 and the IC50 [3] was 117 nM. For the same compound, the IC50 [4] was 113 nM, the selectivity ratio [5] was 1.56 and the “Ratio IC50” value [6] was 1.2. For the same compound, the Ratio IC50 [7] was 1.32, the selectivity ratio [8] was 2.92 and the selectivity ratio [9] was 1.62. It also gave an MNTC at 72 h [10] of 26 nM, an IC50 [11] of 63 nM and an IC50 at 72 h [12] of 183 nM.
`Cc1ccc(-n2cc(CN3C(=O)CN(/N=C/c4ccc([N+](=O)[O-])o4)C3=O)nn2)cc1` showed an IC50 [1] of 113 nM, an IC50 [3] of 145 nM and an IC50 [4] of 59 nM. The selectivity ratio [5] was 1.6, the “Ratio IC50” value [6] was 1.2 and the Ratio IC50 [7] was 2.05. For the same compound, the selectivity ratio [8] was 0.824, the selectivity ratio [9] was 3.92 and the MNTC at 72 h [10] was 27 nM. For the same compound, the IC50 [11] was 283 nM and the IC50 at 72 h [12] was 232 nM.
In the case of `COc1ccc(C(=O)CN2C(=O)CN(/N=C/c3ccc([N+](=O)[O-])o3)C2=O)cc1`, the IC50 [1] is reported as 105 nM, the “Ratio IC50” value [2] is reported as 1.2 and the IC50 [3] is reported as 198 nM. The IC50 [4] was 87 nM, the selectivity ratio [5] was 0.706 and the “Ratio IC50” value [6] was 1.2. It also gave a Ratio IC50 [7] of 1.37, a selectivity ratio [8] of 0.948 and a selectivity ratio [9] of 1.61. For the same compound, the MNTC at 72 h [10] was 26 nM, the IC50 [11] was 149 nM and the IC50 at 72 h [12] was 140 nM.

From ChEMBL document CHEMBL5380816, “Inclusion of Nitrofurantoin into the Realm of Cancer Chemotherapy via Biology-Oriented Synthesis and Drug Repurposing” (J Med Chem, 2023)
